Measured values: patent US10561657B2, “Pyrrolopyrimidine compound” (CENTAURUS BIOPHARMA CO., LTD., priority 2014, dated 2020)
Structures can show the parent of a compound that is named as a salt. Values belong to the compound of their own block, whether it stands above or below them.

Key:
[1] = Pharmacokinetic assay in adult female SD rats (30 mg/kg oral); assay type: in vivo
[2] = system: Ba/F3-JAK2V617F tumor; assay: Efficacy in mouse subcutaneous xenograft tumor model; assay type: in vivo, Balb/c nude mice; settings: for TGI (%) 3 d: day 3; for TGI (%) 7 d: day 7; for TGI (%) 10 d: day 10; for TGI (%) 14 d: day 14
Procedure: 3. Assay for Efficacy in Mouse Subcutaneous Xenograft Tumor Model SPF grade Balb/c nude mice are female and 5-6 weeks old. 0.1 mL of the suspension of Ba/F3-JAK2V617F cells in serum-free culture medium (containing 1×10^7 cells, 50% MatriGel) was subcutaneously injected into right flank of each mouse. When the average tumor volume reached about 500 mm^3, the tumor-bearing mice were sacrificed. The tumor tissues were aseptically picked up, and cut into small pieces, which were subcutaneously implanted into both flanks of Balb/c nude mice. When the average tumor volume reached about 100 mm^3, each mouse was marked according to serial numbers, and their tumor sizes and body weights were measured, respectively. These mice were randomly allocated from small to large in terms of tumor volume, and each group of animals was appropriately adjusted to make the average body weights of the groups in a same level. […] The administration was started on the day of allocation, twice per day for 14 days. During the administration, the tumor volumes and body weights were measured twice per week. The mice were sacrificed at the end of the experiment, and the spleen was isolated and weighted. During the experiment, the maximum long diameter (L) and the maximum transverse diameter in the vertical direction (W) of the tumor were measured to calculate the tumor volume (V) according to V (mm^3)=L×W^2/2. […] T0 represents the average tumor volume of the treatment group when being allocated; Vt represents the average tumor volume measured every time in the control group; V0 represents the average tumor volume of the control group when being allocated.

[3] = biological target: JAK2 kinase (wild type, JAK2^WT) (Homo sapiens (Human), UniProt O60674); assay: HTRF assay for enzymatic activity (IC50), JAK2 wild type; assay type: biochemical; settings: ATP at Km, 120 min, 23 °C
Procedure: 1. Assay for Enzymatic Activity (IC50) of Compounds
A testing platform for kinase activity of JAK2 (wild type and V617F mutant type) was established based on Homogeneous Time-Resolved Fluorescence (HTRF) assay, and the activities of the compounds were tested using the platform. The compounds were subjected to three-fold gradient dilutions with 100% DMSO with a starting concentration of 1 mM (11 dilutions in total). 4 μL of each dilution was added to 96 μL of reaction buffer (50 mM HEPES, pH 7.4, 10 mM MgCl2, 1 mM EGTA, 0.01% Tween-20, 0.005% BAS, 2 mM DTT) and mixed homogeneously. […] The mixture was mixed homogeneously by centrifugation. […] The plate was incubated in the incubator for 1 hr, and then the fluorescence values were read on Envision (available from PerkinElmer). […] The enzymatic activity was representd by a ratio of the two readout at the two emission wavelengths. The enzymatic activity for each compound was tested at 11 concentrations, and IC50 values of the compounds were obtained by calculating the data using GraFit6.0 software (Erithacus Software). 2. Assay for cell proliferation activity (IC50) of compounds

[4] = Pharmacokinetic assay in adult beagles (IV 5 mg/kg, PO 10 mg/kg); assay type: in vivo; settings: for half-life / AUC(0-inf) / Cmax / Tmax: beagle, dog, plasma; for AUC(0-inf): read-out: AUCINF—obs
Source text: Pharmacokinetic Assay in Adult Beagles

[5] = both sexes, IV 5 mg/kg, average
[6] = both sexes, PO 10 mg/kg, average

Chain of JAK2 kinase (wild type, JAK2^WT) (O60674 whole entry): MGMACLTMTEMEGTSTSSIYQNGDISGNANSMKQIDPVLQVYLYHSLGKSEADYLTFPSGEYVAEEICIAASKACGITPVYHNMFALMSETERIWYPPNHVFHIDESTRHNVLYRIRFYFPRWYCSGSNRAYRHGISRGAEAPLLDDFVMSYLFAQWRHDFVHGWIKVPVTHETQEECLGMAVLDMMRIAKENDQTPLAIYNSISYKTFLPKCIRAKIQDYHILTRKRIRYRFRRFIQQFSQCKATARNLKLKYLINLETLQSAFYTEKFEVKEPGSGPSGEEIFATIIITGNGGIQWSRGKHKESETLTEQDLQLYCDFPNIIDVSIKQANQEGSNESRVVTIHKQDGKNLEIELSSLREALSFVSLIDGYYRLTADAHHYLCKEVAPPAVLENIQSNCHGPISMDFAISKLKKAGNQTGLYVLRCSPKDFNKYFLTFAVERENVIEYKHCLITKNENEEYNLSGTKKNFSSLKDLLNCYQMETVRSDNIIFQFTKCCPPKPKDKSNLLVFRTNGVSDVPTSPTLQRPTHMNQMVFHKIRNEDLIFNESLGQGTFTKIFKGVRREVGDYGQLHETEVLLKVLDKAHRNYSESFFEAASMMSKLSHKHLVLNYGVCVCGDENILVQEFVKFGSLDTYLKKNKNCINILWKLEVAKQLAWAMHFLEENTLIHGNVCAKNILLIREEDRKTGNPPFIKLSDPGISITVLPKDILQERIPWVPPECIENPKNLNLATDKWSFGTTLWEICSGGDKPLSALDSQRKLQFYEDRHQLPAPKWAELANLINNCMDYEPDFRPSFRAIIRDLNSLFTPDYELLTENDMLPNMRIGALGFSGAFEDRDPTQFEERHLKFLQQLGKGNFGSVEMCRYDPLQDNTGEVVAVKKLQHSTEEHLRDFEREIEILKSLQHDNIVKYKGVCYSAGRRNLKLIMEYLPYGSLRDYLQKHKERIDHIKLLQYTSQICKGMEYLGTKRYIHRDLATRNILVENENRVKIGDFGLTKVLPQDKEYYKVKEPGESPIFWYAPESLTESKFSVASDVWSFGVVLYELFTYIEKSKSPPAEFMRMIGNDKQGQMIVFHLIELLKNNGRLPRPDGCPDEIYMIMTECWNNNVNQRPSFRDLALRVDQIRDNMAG

- half-life ([1]; female, Sprague-Dawley, rat, plasma, po, 30 mg/kg): 1.95 h
- AUC(0-inf) ([1]; female, Sprague-Dawley, rat, plasma, po, 30 mg/kg, read-out: AUCINFobs): 5760 ng·h/mL
- Cmax ([1]; female, Sprague-Dawley, rat, plasma, po, 30 mg/kg, read-out: Cmax): 2350 ng/mL
- Tmax ([1]; female, Sprague-Dawley, rat, plasma, po, 30 mg/kg, read-out: Tmax): 0.33 h
Structure (SMILES): N#CC[C@H](C1CCCC1)n1cc(-c2ncnc3[nH]ccc23)c(N)n1 [(3R)-3-[3-amino-4-(7H-pyrrolo[2,3-d]pyrimidin-4-yl)-1H-pyrazol-1-yl]-3-cyclopentylpropanenitrile hydrochloride]
- TGI (%) 3 d ([2]; 25 mg/kg PO BID): 45.45%
- TGI (%) 7 d ([2]; 25 mg/kg PO BID): 16.85%
- TGI (%) 10 d ([2]; 25 mg/kg PO BID): 54.49%
- TGI (%) 14 d ([2]; 25 mg/kg PO BID): 40.74%
- TGI (%) 3 d ([2]; 50 mg/kg PO BID): 41.77%
- TGI (%) 7 d ([2]; 50 mg/kg PO BID): 43.60%
- TGI (%) 10 d ([2]; 50 mg/kg PO BID): 65.19%
- TGI (%) 14 d ([2]; 50 mg/kg PO BID, hydrochloride): 68.40%
- TGI (%) 14 d ([2]; 50 mg/kg PO BID, listed as hydrochloride of the compound of Example 5, hydrochloride): 68.4%
- TGI (%) 3 d ([2]; 100 mg/kg PO BID): 91.62%
- TGI (%) 7 d ([2]; 100 mg/kg PO BID): 79.76%
- TGI (%) 10 d ([2]; 100 mg/kg PO BID): 89.37%
- TGI (%) 14 d ([2]; 100 mg/kg PO BID, hydrochloride): 85.76%
- TGI (%) 14 d ([2]; 100 mg/kg PO BID, listed as hydrochloride of the compound of Example 5, hydrochloride): 85.8%
- inhibitory effect on Ba/F3-JAK2V617F tumor growth ([2]; 25, 50, 100 mg/kg PO BID for 14 days): dose-dependent inhibitory effect

- IC50 [3]: < 20 nM
Structure (SMILES): N#CCC(C1CCCC1)n1ncc(-c2ncnc3[nH]ccc23)c1N (centres unmarked) [Example 3, 3-[5-amino-4-(7H-pyrrolo[2,3-d]pyrimidin-4-yl)-1H-pyrazol-1-yl]-3-cyclopentylpropanenitrile]

- IC50 [3]: < 20 nM
- AUCINFobs [1]: 6316 ng·h/mL
- Cmax [1]: 2204 ng/mL
- Tmax [1]: 0.58 h
- t1/2 [1]: 2.20 h
- Cl_obs ([4]; IV 5 mg/kg, average): 8.82 mL/min/kg
- Vss_obs ([4]; IV 5 mg/kg, average): 1.974 L/kg
- Cl_obs ([4]; IV 5 mg/kg, female): 7.37 mL/min/kg
- Vss_obs ([4]; IV 5 mg/kg, female): 1.86 L/kg
- Cl_obs ([4]; IV 5 mg/kg, male): 10.3 mL/min/kg
- Vss_obs ([4]; IV 5 mg/kg, male): 2.089 L/kg
- F ([4]; PO 10 mg/kg, average): 114%
- F ([4]; PO 10 mg/kg, female): 119%
- F ([4]; PO 10 mg/kg, male): 107%
- half-life ([4]; IV 5 mg/kg, female): 3.65 h
- AUC(0-inf) ([4]; IV 5 mg/kg, female): 11500 ng·h/mL
- half-life ([4]; IV 5 mg/kg, male): 3.64 h
- AUC(0-inf) ([4]; IV 5 mg/kg, male): 8190 ng·h/mL
- Cmax ([4]; PO 10 mg/kg, female): 3980 ng/mL
- Tmax ([4]; PO 10 mg/kg, female): 1.13 h
- half-life ([4]; PO 10 mg/kg, female): 3.03 h
- AUC(0-inf) ([4]; PO 10 mg/kg, female): 27400 ng·h/mL
- Cmax ([4]; PO 10 mg/kg, male): 3830 ng/mL
- Tmax ([4]; PO 10 mg/kg, male): 0.25 h
- half-life ([4]; PO 10 mg/kg, male): 3.04 h
- AUC(0-inf) ([4]; PO 10 mg/kg, male): 17500 ng·h/mL
- half-life [4, 5]: 3.64 h
- AUC(0-inf) [4, 5]: 9850 ng·h/mL
- Cmax [4, 6]: 3900 ng/mL
- Tmax [4, 6]: 0.69 h
- half-life [4, 6]: 3.03 h
- AUC(0-inf) [4, 6]: 22500 ng·h/mL
Structure (SMILES): N#CC[C@H](C1CCCC1)n1cc(-c2ncnc3[nH]ccc23)c(N)n1 [Example 5, (3R)-3-[3-amino-4-(7H-pyrrolo[2,3-d]pyrimidin-4-yl)-1H-pyrazol-1-yl]-3-cyclopentylpropanenitrile]

- IC50 [3]: < 20 nM
Structure (SMILES): N#CC[C@@H](C1CCCC1)n1cc(-c2ncnc3[nH]ccc23)c(N)n1 [Example 6, (3S)-3-[3-amino-4-(7H-pyrrolo[2,3-d]pyrimidin-4-yl)-1H-pyrazol-1-yl]-3-cyclopentylpropanenitrile]

- IC50 [3]: < 20 nM
Structure (SMILES): CC(=O)Nc1nn(C(CC#N)C2CCCC2)cc1-c1ncnc2[nH]ccc12 (centres unmarked) [Example 9, N-[1-(2-cyano-1-cyclopentylethyl)-4-(7H-pyrrolo[2,3-d]pyrimidin-4-yl)-1H-pyrazol-3-yl]acetamide]

- IC50 [3]: < 20 nM
Structure (SMILES): N#CCC(C1CCCC1)n1cc(-c2ncnc3[nH]ccc23)c(NCCN2CCOCC2)n1 (centres unmarked) [Example 11, 3-cyclopentyl-3-[3-(2-morpholinylethylamino)-4-(7H-pyrrolo[2,3-d]pyrimidin-4-yl)-1H-pyrazol-1-yl]propionitrile]

- IC50 [3]: < 20 nM
Structure (SMILES): N#CCC(C1CCCC1)n1cc(-c2ncnc3[nH]ccc23)c(NC(=O)CN2CCOCC2)n1 (centres unmarked) [Example 12, N-[1-(2-cyano-1-cyclopentylethyl)-4-(7H-pyrrolo[2,3-d]pyrimidin-4-yl)-1H-pyrazol-3-yl]-2-morpholinylacetamide]

- IC50 [3]: < 20 nM
Structure (SMILES): N#CCC(C1CCCC1)n1cc(-c2ncnc3[nH]ccc23)c(NCCC(=O)N2CCOCC2)n1 (centres unmarked) [Example 13, 3-cyclopentyl-3-[3-(3-morpholinyl-3-oxopropylamino)-4-(7H-pyrrolo[2,3-d]pyrimidin-4-yl)-1H-pyrazol-1-yl]propionitrile]

- IC50 [3]: < 20 nM
Structure (SMILES): N#CCC(C1CCCC1)n1cc(-c2ncnc3[nH]ccc23)c(NCC(=O)N2CCOCC2)n1 (centres unmarked) [Example 14, 3-cyclopentyl-3-[3-(2-morpholinyl-2-oxoethylamino)-4-(7H-pyrrolo[2,3-d]pyrimidin-4-yl)-1H-pyrazol-1-yl]propionitrile]

- IC50 [3]: < 20 nM
Structure (SMILES): CCOC(=O)CCC(=O)Nc1nn(C(CC#N)C2CCCC2)cc1-c1ncnc2[nH]ccc12 (centres unmarked) [Example 15, Ethyl 4-[1-(2-cyano-1-cyclopentylethyl)-4-(7H-pyrrolo[2,3-d]pyrimidin-4-yl)-1H-pyrazol-3-ylamino]-4-oxobutanoate]

- IC50 [3]: < 100 nM
Structure (SMILES): N#CCC(C1CCCC1)n1cc(-c2ncnc3[nH]ccc23)c(N2C(=O)CCC2=O)n1 (centres unmarked) [Example 16, 3-cyclopentyl-3-[3-(succinimid-1-yl)-4-(7H-pyrrolo[2,3-d]pyrimidin-4-yl)-1H-pyrazol-1-yl]propionitrile]

- IC50 [3]: < 20 nM
Structure (SMILES): N#CCC(C1CCCC1)n1cc(-c2ncnc3[nH]ccc23)c(NC2CC(C(=O)N3CCOCC3)C2)n1 (centres unmarked) [Example 17, 3-[3-(3-morpholin-4-carbonyl)cyclobutylamino-4-(7H-pyrrolo[2,3-d]pyrimidin-4-yl)-1H-pyrazolyl]-3-cyclopentylpropanenitrile]

- IC50 [3]: < 1000 nM
Structure (SMILES): N#CCC(C1CCCC1)n1cc(-c2ncnc3[nH]cc(Br)c23)c(Br)n1 (centres unmarked) [Example 18, 3-[3-bromo-4-(5-bromo-7H-pyrrolo[2,3-d]pyrimidin-4-yl)-1H-pyrazol-1-yl]-3-cyclopentylpropanenitrile]

- IC50 [3]: < 20 nM
Structure (SMILES): N#CCC(C1CCCC1)n1cc(-c2ncnc3[nH]ccc23)c(Br)n1 (centres unmarked) [Example 19, 3-[3-bromo-4-(7H-pyrrolo[2,3-d]pyrimidin-4-yl)-1H-pyrazol-1-yl]-3-cyclopentylpropanenitrile]

- IC50 [3]: < 20 nM
Structure (SMILES): N#CCC(C1CCCC1)n1cc(-c2ncnc3[nH]ccc23)c(C(N)=O)n1 (centres unmarked) [Example 24, 1-(2-cyano-1-cyclopentylethyl)-4-(7H-pyrrolo[2,3-d]pyrimidin-4-yl)-1H-pyrazol-3-formamide]

- IC50 [3]: < 20 nM
Structure (SMILES): CNC(=O)c1nn(C(CC#N)C2CCCC2)cc1-c1ncnc2[nH]ccc12 (centres unmarked) [Example 25, 1-(2-cyano-1-cyclopentylethyl)-N-methyl-4-(7H-pyrrolo[2,3-d]pyrimidin-4-yl)-1H-pyrazol-3-formamide]

- IC50 [3]: < 20 nM
Structure (SMILES): N#CCC(C1CCCC1)n1cc(-c2ncnc3[nH]ccc23)c(C(=O)NCCN)n1 (centres unmarked) [Example 26, N-(2-aminoethyl)-1-(2-cyano-1-cyclopentylethyl)-4-(7H-pyrrolo[2,3-d]pyrimidin-4-yl)-1H-pyrazol-3-formamide]

- IC50 [3]: < 20 nM
Structure (SMILES): N#CCC(C1CCCC1)n1cc(-c2ncnc3[nH]ccc23)c(C#N)n1 (centres unmarked) [Example 27, 1-(2-cyano-1-cyclopentylethyl)-4-(7H-pyrrolo[2,3-d]pyrimidin-4-yl)-1H-pyrazol-3-carbonitrile]

- IC50 [3]: < 20 nM
Structure (SMILES): N#CCC(C1CCCC1)n1cc(-c2ncnc3[nH]ccc23)c(CO)n1 (centres unmarked) [Example 28, 3-cyclopentyl-3-[3-(hydroxymethyl)-4-(7H-pyrrolo[2,3-d]pyrimidin-4-yl)-1H-pyrazol-1-yl]propionitrile]
